From paper PMC5127577, “Biochemical Characterization of Glutamate Racemase—A New Candidate Drug Target against Burkholderia cenocepacia Infections” (PLoS ONE, 2016)
Where two headings read alike, the source gives them in different places.

Assays:
[1] = target: T1, B. cenocepacia J2315 glutamate racemase (BcGR) (Burkholderia cenocepacia, UniProt B4EEM8); test: BcGR enzymatic activity inhibition, spectrophotometric coupled assay (L-glutamate dehydrogenase/diaphorase); conditions: for BcGR inhibition in screening: compound 100 μM; for inhibitory effect in the presence of EDTA: excess of EDTA; for mode of inhibition: steady state kinetics, D-Glu 5–50 mM, compound 0–100 μM
T1 sequence (B4EEM8 1-285): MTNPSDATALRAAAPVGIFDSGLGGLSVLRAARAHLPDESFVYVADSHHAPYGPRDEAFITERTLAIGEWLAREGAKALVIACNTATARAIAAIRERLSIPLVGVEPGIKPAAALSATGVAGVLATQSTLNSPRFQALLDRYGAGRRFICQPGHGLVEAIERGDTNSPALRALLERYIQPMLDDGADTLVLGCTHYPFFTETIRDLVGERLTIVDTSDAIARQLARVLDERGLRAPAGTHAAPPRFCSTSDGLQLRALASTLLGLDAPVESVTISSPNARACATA

[2] = target: GR from B. subtilis; conditions: cited from earlier work
[3] = target: GR from B. anthracis; conditions: cited from earlier work
[4] = system: B. cenocepacia J2315; test: Minimal Inhibitory Concentration, 2-fold microdilution, resazurin method; format: cell-based, Burkholderia cenocepacia J2315; conditions: planktonic cells, 8 to 1024 μg/ml tested, two days 37°C

**Q.** What does the source list for O=S(=O)(O)c1nc2ccccc2[nH]1 [1-H-benzimidazole-2-sulfonic acid, reference compound]?
**A.** BcGR inhibition in screening ([1]; 20 mM D-Glu): did not show any inhibition; Ki [2]: 0.009 mM

**Q.** Which results are given for O=S(=O)(O)c1ccc(O)c(S(=O)(=O)O)c1 [4-hydroxybenzene-1,3-disulfonate, reference compound]?
**A.** Ki [3]: 59 µM; BcGR inhibition in screening ([1]; 20 mM D-Glu): did not show any inhibition

**Q.** For N[C@H](CC(Cc1ccccc1)C(=O)O)C(=O)O (stereo partly drawn) [(2R)-2-amino-4-benzylpentanedioic, (2R)-2-amino-4-benzylpentanedioic acid, reference compound], which “BcGR inhibition in screening” value ([1]; 20 mM D-Glu) is on record?
**A.** did not show any inhibition

**Q.** With O=C(O)c1cccc(C(=O)O)n1 [dipicolinic acid] as the compound, how does the Ki ([3]; non-competitive inhibitor) read?
**A.** 92 µM

**Q.** What about the IC50 [1] of the same compound?
**A.** 150 ± 30 µM

**Q.** What about the Ki [2] of the same compound?
**A.** 2.7 mM

**Q.** Which IC50 ([1]; 20 mM D-Glu, 37°C, pH 8.0) does the source give for “bis(2,4-bis(trichloromethyl)-1,3,5-triazapentadienato)-zinc(II) complex [(1)]” here?
**A.** 35.3 ± 4.9 µM

**Q.** What about the “BcGR inhibition in screening” value ([1]; 20 mM D-Glu) of the same compound?
**A.** almost completely inhibit

**Q.** What about the “inhibitory effect in the presence of EDTA” value [1] of the same compound?
**A.** could be observed also in the presence of EDTA

**Q.** What about the mode of inhibition [1] of the same compound?
**A.** non-competitive

**Q.** And the “MIC (concentration necessary to inhibit growth)” value [4]?
**A.** at least 512 μg/ml

**Q.** Which IC50 ([1]; 20 mM D-Glu, 37°C, pH 8.0) does the source give for “tris(2,4-bis(trichloromethyl)-1,3,5-triazapentadienate)-Mn(III) complex [(2)]” here?
**A.** 10 ± 0.8 µM

**Q.** What about the “BcGR inhibition in screening” value ([1]; 20 mM D-Glu) of the same compound?
**A.** almost completely inhibit

**Q.** And the “inhibitory effect in the presence of EDTA” value [1]?
**A.** could be observed also in the presence of EDTA

**Q.** And the mode of inhibition [1]?
**A.** non-competitive

**Q.** And the “MIC (concentration necessary to inhibit growth)” value [4]?
**A.** at least 512 μg/ml
